Values joined by “and” are separate entries in the source; they are usually repeats but may differ in a detail not shown here. Identical values can stand only once. Toxic doses and inconclusive results are not listed.
Tested on: BDF1 mice, L1210 leukemia sc, survival T/C
Test: NCI In Vivo Anticancer Drug Screen. Data for tumor model L1210 Leukemia (subcutaneous) in B6D2F1 (BDF1) mice
Conditions: endpoint: median survival time, higher = longer survival
Experimental: The antitumor activity of compounds was measured in mice bearing transplantable tumors. Survival or tumor size were measured and the results are expressed as the measurement made in the treated group (T) divided by the measurement made in the vehicle treated control group (C). The tumor model used in this assay is L1210 Leukemia (subcutaneous) in B6D2F1 (BDF1) mice

[1] = dose: 39.0 mg/kg/injection, schedule: Q01DX Z (sc), vehicle: saline
[2] = dose: 65.0 mg/kg/injection, schedule: Q01DX Z (sc), vehicle: saline
[3] = dose: 108.0 mg/kg/injection, schedule: Q01DX Z (sc), vehicle: saline
[4] = dose: 180.0 mg/kg/injection, schedule: Q01DX Z (sc), vehicle: saline

**Q.** For `S=P(N1CCOCC1)(N1CC1)N1CC1`, which T/C (dose: 14.0 mg/kg/injection, schedule: Q01DX Z (sc), vehicle: saline) is on record?
**A.** 96 % of control and 110 % of control (2×)

**Q.** What about the T/C (dose: 23.0 mg/kg/injection, schedule: Q## X Z (sc), vehicle: saline) of the same compound?
**A.** 120 % of control

**Q.** And the T/C (dose: 39.0 mg/kg/injection, schedule: Q01DX001 (sc), vehicle: saline)?
**A.** 120 % of control

**Q.** What about the T/C [1] of the same compound?
**A.** 150 % of control and 180 % of control

**Q.** And the T/C (dose: 65.0 mg/kg/injection, schedule: Q01DX001 (sc), vehicle: saline)?
**A.** 150 % of control

**Q.** And the T/C [2]?
**A.** 150 % of control

**Q.** What about the T/C (dose: 65.0 mg/kg/injection, schedule: Q## X Z (sc), vehicle: saline) of the same compound?
**A.** 170 % of control

**Q.** What about the T/C [3] of the same compound?
**A.** 104 % of control and 120 % of control

**Q.** What about the T/C [4] of the same compound?
**A.** 104 % of control and 120 % of control

**Q.** And the T/C (dose: 500.0 mg/kg/injection, schedule: Q01DX001 (sc), vehicle: saline)?
**A.** 115 % of control

**Q.** Which results are given for `O=C(NP(=O)(N1CC1)N1CC1)OCc1ccccc1`?
**A.** T/C (dose: 3.0 mg/kg/injection, schedule: Q01DX Z (sc), vehicle: water): 111 % of control; T/C (dose: 14.0 mg/kg/injection, schedule: Q01DX Z (sc), vehicle: water): 111 % of control; T/C (dose: 23.0 mg/kg/injection, schedule: Q01DX Z (sc), vehicle: water): 111 % of control

**Q.** Which results are given for `CCCCCCC(=O)O[C@H]1CC[C@H]2[C@@H]3CCC4=CC(=O)CC[C@]4(C)[C@H]3CC[C@]12C`?
**A.** T/C (dose: 5.0 mg/kg/injection, schedule: Q01DX009 (ip), vehicle: other): 101 % of control; T/C (dose: 5.0 mg/kg/injection, schedule: Q01DX009 (sc), vehicle: other): 102 % of control and 105 % of control; T/C (dose: 10.0 mg/kg/injection, schedule: Q01DX009 (ip), vehicle: other): 102 % of control; T/C (dose: 10.0 mg/kg/injection, schedule: Q01DX009 (sc), vehicle: other): 100 % of control and 104 % of control; T/C (dose: 20.0 mg/kg/injection, schedule: Q01DX009 (ip), vehicle: other): 98 % of control; T/C (dose: 20.0 mg/kg/injection, schedule: Q01DX009 (sc), vehicle: other): 104 % of control and 105 % of control; T/C (dose: 40.0 mg/kg/injection, schedule: Q01DX009 (ip), vehicle: other): 104 % of control; T/C (dose: 40.0 mg/kg/injection, schedule: Q01DX009 (sc), vehicle: other): 101 % of control and 103 % of control; T/C (dose: 80.0 mg/kg/injection, schedule: Q01DX009 (ip), vehicle: other): 97 % of control and 98 % of control; T/C (dose: 160.0 mg/kg/injection, schedule: Q01DX009 (ip), vehicle: other): 94 % of control and 98 % of control; T/C (dose: 320.0 mg/kg/injection, schedule: Q01DX009 (sc), vehicle: other): 88 % of control and 104 % of control; T/C (dose: 640.0 mg/kg/injection, schedule: Q01DX009 (sc), vehicle: other): 95 % of control and 100 % of control

**Q.** Which results are given for `CO[C@H](C(=O)[C@@H](O)[C@@H](C)O)[C@@H]1Cc2cc3cc(OC4CC(OC5CC(O)C(O)C(C)O5)C(O)C(C)O4)c(C)c(O)c3c(O)c2C(=O)[C@H]1OC1CC(OC2CC(OC3CC(C)(O)C(O)C(C)O3)C(O)C(C)O2)C(O)C(C)O1` (stereo partly specified)?
**A.** T/C (dose: 0.12 mg/kg/injection, schedule: Q01DX009 (ip), vehicle: water): 105 % of control; T/C (dose: 0.12 mg/kg/injection, schedule: Q01DX009 (sc), vehicle: water): 103 % of control; T/C (dose: 0.25 mg/kg/injection, schedule: Q01DX009 (ip), vehicle: water): 94 % of control; T/C (dose: 0.25 mg/kg/injection, schedule: Q01DX009 (sc), vehicle: water): 100 % of control and 103 % of control; T/C (dose: 0.5 mg/kg/injection, schedule: Q01DX009 (sc), vehicle: water): 95 % of control and 110 % of control; T/C (dose: 1.0 mg/kg/injection, schedule: Q01DX009 (ip), vehicle: water): 93 % of control; T/C (dose: 1.0 mg/kg/injection, schedule: Q01DX009 (sc), vehicle: water): 101 % of control; T/C (dose: 2.0 mg/kg/injection, schedule: Q01DX009 (sc), vehicle: water): 96 % of control

**Q.** For `O=c1[nH]c(=O)n(C2OC(CO)C(O)C2O)cc1I` (stereo unspecified), which T/C [1] is on record?
**A.** 100 % of control

**Q.** What about the T/C [2] of the same compound?
**A.** 100 % of control

**Q.** What about the T/C [3] of the same compound?
**A.** 100 % of control

**Q.** And the T/C [4]?
**A.** 94 % of control and 100 % of control

**Q.** And the T/C (dose: 300.0 mg/kg/injection, schedule: Q01DX Z (sc), vehicle: saline)?
**A.** 100 % of control

**Q.** And the T/C (dose: 500.0 mg/kg/injection, schedule: Q01DX Z (sc), vehicle: saline)?
**A.** 100 % of control and 105 % of control

**Q.** What about the T/C (dose: 833.0 mg/kg/injection, schedule: Q01DX Z (sc), vehicle: saline) of the same compound?
**A.** 94 % of control

**Q.** And the T/C (dose: 1388.0 mg/kg/injection, schedule: Q01DX Z (sc), vehicle: saline)?
**A.** 94 % of control
